According to patent publication US10815208B2, “Method for preparing 2-hydroxyl-4-(2, 3-disubstituted benzyloxy)-5-substituted benzaldehyde derivative” (Institute of Materia Medica, Chinese Academy of Medical …, priority 2016, dated 2020):

Assays:
PD-1/PD-L1 = PD-1/PD-L1 (Homo sapiens (Human), UniProt Q9NZQ7); assay: Cisbio HTRF binding assay, PD-1/PD-L1 small molecule inhibitor screening; conditions: for IC50: HTRF, PD-1 (HIS tag) / PD-L1 (hFc tag), 8-10 concentrations
From the text: In vitro activity evaluation: Cisbio HTRF binding assay kit was applied for the detection method of in vitro enzymology level.
Screening Principles and Methods of PD-1/PD-L1 Small Molecule Inhibitors
1) Principle: PD-1 protein is with HIS tag, and PD-1 ligand PD-L1 is with hFc tag. Eu labeled anti-hFc antibody and XL665 labeled anti-HIS antibody are combined with the above two label proteins respectively. After laser excitation, energy can be transferred from donor Eu to receptor XL665, allowing XL665 to glow.
2) Experimental method: Reagents should be dispensed in the following order. For 384-well white ELISA plate, 2 μl of diluent or target compound diluted with diluent was added to each well, and then 4 μl of PD-1 protein and 4 μl of PD-L1 protein were added per well, incubated for 15 min at the room temperature; and 10 μl of anti-Tag1-Eu3^+ and anti-Tag2-XL665 was added per well and incubated for 1 h at the room temperature and the fluorescence signals at 665 nm and 620 nm were measured. HTRF rate=(665 nm/620 nm)*10^4. 8-10 concentrations were detected for each compound and IC50 was calculated by Graphpad software.

[1] = test system: advanced triple-negative breast cancer; conditions: in vivo; cited from earlier work
[2] = test system: advanced Hodgkin's lymphoma (HL); conditions: advanced HL patients with no treatment response to any of the approved drugs; cited from earlier work
[3] = test system: pleural mesothelioma (PM); conditions: 25 patients with pleural mesothelioma (PM); cited from earlier work

Sequence of PD-1/PD-L1 (Q9NZQ7 19-238): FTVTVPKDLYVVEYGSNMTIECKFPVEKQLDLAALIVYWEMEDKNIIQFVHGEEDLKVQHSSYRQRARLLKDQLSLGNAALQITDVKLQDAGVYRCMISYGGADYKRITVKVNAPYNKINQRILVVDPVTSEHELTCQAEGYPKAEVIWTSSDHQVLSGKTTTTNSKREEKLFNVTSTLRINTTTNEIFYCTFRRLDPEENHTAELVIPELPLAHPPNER

Compound | inhibition of the interaction between PD-1 and PD-L1 (PD-1/PD-L1) | IC50 (PD-1/PD-L1) | treatment response [2] | other results
CC(=O)NCCNCc1cc(Cl)c(OCc2cccc(-c3ccccc3)c2Br)cc1OCc1cccc(C#N)c1 [Example 2, N-acetylaminoethyl-4-(2-bromo-3-phenylbenzyloxy)-2-(3-cyanobenzyloxy)-5-chlorobenzylamine] | significantly inhibit | 62.3 nM |  | 
(R)—N-[2-(5-cyanopyridine-3-methyleneoxy)-4-(2-methyl-3-(2,3-dihydrobenzo[b][1,4]dioxin-6-yl)benzyloxy)-5-chlorobenzyl]-3-(pyridin-3-yl)alanine [Example 6] | significantly inhibit | 35 nM |  | 
MPDL3280A: Roche's PD-L1 monoclonal antibody |  |  |  | effect in advanced triple-negative breast cancer [1]: long-lasting effect
nivolumab [Opdvio] |  |  | complete remission | 
pembrolizumab [Keytruda] |  |  | complete remission | disease control rate [3]: 76%; overall response rate (ORR) [3]: 28%
